# Experimental data: patent US9943566B2, “NF-κB inhibitor composition for skin health” (Geoffrey Brooks Consultants, LLC, priority 2016, dated 2018)
# System: cultured human fibroblasts
# Assay: DNA microarray analysis of gene expression in cultured human fibroblasts treated with peptides
# Assay type: cell-based
# Conditions: for Peptide Fluorescent Intensity: TGFB / Peptide Fluorescent Intensity: TGFBR1 / Peptide Fluorescent Intensity: TGFBR3: TGF Family Molecules
# Experimental: Expression levels for a variety of different genes treated with N-M-A-N-A-K (SEQ ID NO: 1) and A-N-V-A-E-N-A (SEQ ID NO: 2) were determined using DNA microarray analysis of cultured human fibroblasts at BioInnovation Laboratories, Inc., Lakewood, Colo.
# The microarrays were scanned with an Axon GenePix 4100A Scanner with the scanning resolution set to 10 μm and analyzed with GenePix Pro software. During the initial scan the PMT gains for the scanner were adjusted such that the Cy5/Cy3 image count ratios were between 0.9 and 1.1.
# To derive the standard curve for the assay, the relative fluorescent units versus the known RNA concentrations in μg/ml for the standards were plotted and subjected to regression analysis to establish the line that best fit the data points. Mean RFU values for the test materials and untreated samples were used to estimate the amount of RNA present in each sample.
# Because the level of gene expression is related to the fluorescence intensity of the probed gene marker on the microarray, and since it is possible to have differences in labeling efficiency when making the Cy3 and Cy5 probes, it is essential to normalize the fluorescence measurements between the two respective dyes before examining changes in gene expression. As a result, fluorescence intensities for the microarrays were subjected to global normalization. The total fluorescent signal for both dyes was normalized with a correction factor so that the ratio of total intensities for both dyes was equal to one.
# The resulting normalized total fluorescent signals for peptides, N-M-A-N-A-K (SEQ ID NO: 1) and A-N-V-A-E-N-A (SEQ ID NO: 2) with a variety of gene samples are shown in Table 1.
# [1] = 10 ppm peptide, Additional Genes
# [2] = 10 ppm peptide, Extracellular Matrix Genes Regulated by TGF Beta
# [3] = 10 ppm peptide, Genes that Regulate Wound Healing (regulated by TGF beta)
# [4] = 10 ppm peptide, Molecules that Regulate TGF Beta Expression/Activity
# [5] = 10 ppm peptide, TGF Beta Signaling Pathway Molecules
# [6] = 10 ppm peptide, Anti-Inflammatory
substance,measurement,setting,value
ANVAENA (TGF-beta mimic),Peptide Fluorescent Intensity: LOX,[1],0.974
same,Peptide Fluorescent Intensity: OGG1,[1],1.364
same,Peptide Fluorescent Intensity: PLOD,[1],1.112
same,Peptide Fluorescent Intensity: PLOD2,[1],0.445
same,Peptide Fluorescent Intensity: PLOD3,[1],3.805
same,Peptide Fluorescent Intensity: RAD23A,[1],0.078
same,Peptide Fluorescent Intensity: RAD23B,[1],1.218
same,Peptide Fluorescent Intensity: SIRT1,[1],0.228
same,Peptide Fluorescent Intensity: SIRT3,[1],0.010
same,Peptide Fluorescent Intensity: TERT,[1],0.198
same,Peptide Fluorescent Intensity: COL1A1,[2],2.198
same,Peptide Fluorescent Intensity: COL1A2,[2],3.669
same,Peptide Fluorescent Intensity: COL3A1,[2],2.987
same,Peptide Fluorescent Intensity: COL4A1,[2],0.910
same,Peptide Fluorescent Intensity: COL6A1,[2],6.282
same,Peptide Fluorescent Intensity: COL6A2,[2],2.902
same,Peptide Fluorescent Intensity: COL7,[2],0.435
same,Peptide Fluorescent Intensity: CTGF,[2],0.076
same,Peptide Fluorescent Intensity: EGFR,[2],1.133
same,Peptide Fluorescent Intensity: Fibronectin,[2],1.407
same,Peptide Fluorescent Intensity: IL-6,[2],1.135
same,Peptide Fluorescent Intensity: MMP1,[2],1.991
same,Peptide Fluorescent Intensity: MMP2,[2],0.034
same,Peptide Fluorescent Intensity: PDGFR alpha subunit,[2],1.330
same,Peptide Fluorescent Intensity: TIMP1,[2],4.567
same,Peptide Fluorescent Intensity: Tenascin (TNXB),[2],1.353
same,Peptide Fluorescent Intensity: βIG-H3 (TGFBI),[2],2.069
same,Peptide Fluorescent Intensity: FGF2,[3],0.912
same,Peptide Fluorescent Intensity: GM-CSF (CSF2),[3],0.014
same,Peptide Fluorescent Intensity: VEGFA,[3],0.798
same,Peptide Fluorescent Intensity: Activin A beta subunit (INHBB),[4],0.261
same,Peptide Fluorescent Intensity: BMP1,[4],0.497
same,Peptide Fluorescent Intensity: Follistatin (FST),[4],0.594
same,Peptide Fluorescent Intensity: Inhibin (INHA),[4],0.264
same,Peptide Fluorescent Intensity: LTBP (LTBP1),[4],0.652
same,Peptide Fluorescent Intensity: MMP2,[4],0.034
same,Peptide Fluorescent Intensity: YY1,[4],0.713
same,Peptide Fluorescent Intensity: CBP (CREBBP),[5],0.375
same,Peptide Fluorescent Intensity: SAR1A,[5],1.905
same,Peptide Fluorescent Intensity: SP1,[5],0.590
same,Peptide Fluorescent Intensity: Smad1,[5],1.325
same,Peptide Fluorescent Intensity: Smad2,[5],0.824
same,Peptide Fluorescent Intensity: Smad3,[5],1.202
same,Peptide Fluorescent Intensity: Smad4,[5],0.374
same,Peptide Fluorescent Intensity: Smad6,[5],0.136
same,Peptide Fluorescent Intensity: Smad7,[5],0.357
same,Peptide Fluorescent Intensity: p38MAPK (MAPK14),[5],0.594
same,Peptide Fluorescent Intensity: p300 (EP300),[5],0.961
same,Peptide Fluorescent Intensity: TGFB,10 ppm peptide,0.113
same,Peptide Fluorescent Intensity: TGFBR1,10 ppm peptide,0.128
same,Peptide Fluorescent Intensity: TGFBR3,10 ppm peptide,0.098
same,impact on anti-inflammatory genes,"peptide alone, in words",does not impact anti-inflammatory genes significantly
Asparagine-Methionine-Alanine-Asparagine-Alanine-Lysine (Asn-Met-Ala-Asn-Ala-Lys) [NMANAK],"number of anti-inflammatory genes upregulated (COX1, COX411, COX7C, COX8A, DEFB4, IL10RB, IL26, IL27, ILF2, ILDR1)",10 ppm peptide,≥ 10
same,Peptide Fluorescent Intensity: AQP3,[1],3.294
same,Peptide Fluorescent Intensity: EEF1A1 (cell growth),[1],6.301
same,Peptide Fluorescent Intensity: EEF1A2 (cancer cell growth),[1],0.067
same,Peptide Fluorescent Intensity: EEF1G (aminoacyl transferase - glutathione),[1],1.928
same,Peptide Fluorescent Intensity: LOX,[1],1.035
same,Peptide Fluorescent Intensity: OGG1,[1],1.176
same,Peptide Fluorescent Intensity: PLOD,[1],1.105
same,Peptide Fluorescent Intensity: PLOD2,[1],1.085
same,Peptide Fluorescent Intensity: PLOD3,[1],4.092
same,Peptide Fluorescent Intensity: RAD23A,[1],0.933
same,Peptide Fluorescent Intensity: RAD23B,[1],0.603
same,Peptide Fluorescent Intensity: SIRT1,[1],0.410
same,Peptide Fluorescent Intensity: SIRT3,[1],0.735
same,Peptide Fluorescent Intensity: SIRT 5,[1],1.482
same,Peptide Fluorescent Intensity: COX1,[6],2.645
same,Peptide Fluorescent Intensity: COX7C,[6],1.341
same,Peptide Fluorescent Intensity: COX8A,[6],1.803
same,Peptide Fluorescent Intensity: COX411,[6],2.067
same,Peptide Fluorescent Intensity: DEFB4,[6],4.798
same,Peptide Fluorescent Intensity: IL10RB,[6],1.889
same,Peptide Fluorescent Intensity: IL26,[6],2.036
same,Peptide Fluorescent Intensity: IL27,[6],2.257
same,Peptide Fluorescent Intensity: ILDR1 (immunoglobin receptor),[6],1.546
same,Peptide Fluorescent Intensity: ILF2,[6],4.120
same,Peptide Fluorescent Intensity: BMP7,[2],2.000
same,Peptide Fluorescent Intensity: COL1A2,[2],3.992
same,Peptide Fluorescent Intensity: COL3A1,[2],2.047
same,Peptide Fluorescent Intensity: COL6A1,[2],3.446
same,Peptide Fluorescent Intensity: COL6A2,[2],1.705
same,Peptide Fluorescent Intensity: COL7,[2],1.080
same,Peptide Fluorescent Intensity: CTGF,[2],0.429
same,Peptide Fluorescent Intensity: EGFR,[2],1.159
same,Peptide Fluorescent Intensity: ELA2A (elastase),[2],3.148
same,Peptide Fluorescent Intensity: ELN,[2],0.773
same,Peptide Fluorescent Intensity: FGF3 (fibroblast growth factor),[2],2.000
same,Peptide Fluorescent Intensity: MMP1,[2],1.164
same,Peptide Fluorescent Intensity: MMP2,[2],0.785
same,Peptide Fluorescent Intensity: PDGFR alpha subunit,[2],1.608
same,Peptide Fluorescent Intensity: TIMP1,[2],4.057
same,Peptide Fluorescent Intensity: Tenascin (TNXB),[2],1.752
same,Peptide Fluorescent Intensity: FGF2,[3],0.679
same,Peptide Fluorescent Intensity: VEGFA,[3],1.385
same,Peptide Fluorescent Intensity: Activin A beta subunit (INHBB),[4],0.095
same,Peptide Fluorescent Intensity: BMP1,[4],0.837
same,Peptide Fluorescent Intensity: Follistatin (FST),[4],0.665
same,Peptide Fluorescent Intensity: Inhibin (INHA),[4],1.917
same,Peptide Fluorescent Intensity: LTBP (LTBP1),[4],0.268
same,Peptide Fluorescent Intensity: YY1,[4],1.378
same,Peptide Fluorescent Intensity: CBP (CREBBP),[5],0.743
same,Peptide Fluorescent Intensity: SAR1A,[5],1.632
same,Peptide Fluorescent Intensity: SP1,[5],0.932
same,Peptide Fluorescent Intensity: Smad1,[5],0.918
same,Peptide Fluorescent Intensity: Smad2,[5],0.857
same,Peptide Fluorescent Intensity: Smad3,[5],0.882
same,Peptide Fluorescent Intensity: Smad4,[5],0.454
same,Peptide Fluorescent Intensity: Smad6,[5],1.354
same,Peptide Fluorescent Intensity: Smad7,[5],1.160
same,Peptide Fluorescent Intensity: p38MAPK (MAPK14),[5],1.057
same,Peptide Fluorescent Intensity: TGFB,10 ppm peptide,1.224
same,Peptide Fluorescent Intensity: TGFBR1,10 ppm peptide,0.373
same,Peptide Fluorescent Intensity: TGFBR3,10 ppm peptide,1.229
same,effect on AQP3 (aquaporin3) and EEf1G (glutathione) genes,"10 ppm peptide, in words",upregulated
same,"effect on genes expressing extra-cellular matrix components, including collagen production genes COL1A2, COL3A1, COL6A1 and COL6A2","10 ppm peptide, in words",upregulation
same,"effect on genes that control TGF-β expression (YY1, INHA)","10 ppm peptide, in words",upregulating
